Measured values as given in patent US20140369933A1, “FLUORINE-18 LABELED HYDROGEN ION PROBES” (The Trustees of The University of Pennsylvania, priority 2011, published 2014).
Like-named read-outs stand apart in the source and are kept apart here.

Experiments:
[1] = pKa of the indicators by UV-VIS spectroscopy from pH dependence of absorption of basic forms
Description: (§1) The values of pKa of the indicators were determined by UV-VIS spectroscopy from the pH dependence of absorption of their basic forms and other spectroscopic investigations of the products were performed by Beckman-Coulter DU 530 spectrophotometer using acetate, phosphate, TRIZMA, and borate buffers for different values of pH. The number of fluorine atoms in the molecule was also determined by comparison of the ratio of sample activity to absorption of the basic forms of indicators.

[2] = UV-VIS absorption maxima of indicator forms; format: physicochemical; settings: for absorption maximum of basic form: basic form of indicator; for absorption maximum of acidic form: acidic form of indicator
Description: as §1

[3] = parental compound, intravenous injection, renal excretion; cited from earlier work
[4] = UV-VIS, pH dependence of absorption of basic form, acetate, phosphate, TRIZMA, borate buffers

Molecule	pKa [1, 4]	absorption maximum of basic form [2] [nm]	pKa [1]	absorption maximum of acidic form [2] [nm]	half-life, mostly renal clearance [3] [min]
Cc1cc(O)ccc1C1(c2ccc(O)cc2C)OS(=O)(=O)c2ccccc21 [CP, cresolsulfonphthalein, reference compound]	8.3	–	–	–	–
Cc1cc(C2(c3ccc(O)c(C)c3)OS(=O)(=O)c3ccccc32)ccc1O [Cresol Red, ortho-cresolsulfonphthalein, reference compound]	8.2	572	–	–	–
Cc1cc(C2(c3cc(C)c(O)c([18F])c3)OS(=O)(=O)c3ccccc32)cc([18F])c1O [DFCR, DiFluoroCresol Red]	–	582	6.8	–	–
O=S1(=O)OC(c2ccc(O)c([18F])c2)(c2ccc(O)c([18F])c2)c2ccccc21 [DFPR, difluorophenol red]	–	570	6.4	428	–
Cc1c(C2(c3cc(C(C)C)c(O)c([18F])c3C)OS(=O)(=O)c3ccccc32)cc(C(C)C)c(O)c1[18F] [DFTB, difluorothymolsulfonphthalein]	–	605	7.65	–	–
Cc1cc(C2(c3cc(C)c(O)c([18F])c3)OS(=O)(=O)c3ccccc32)ccc1O (stereo not drawn) [MFCR, MonoFluoroCresol Red]	–	576	7.6	–	–
O=S1(=O)OC(c2ccc(O)cc2)(c2ccc(O)c([18F])c2)c2ccccc21 (stereo not drawn) [MFPR, monofluorophenol red]	–	564	7.3	436	–
Cc1cc(O)c(C(C)C)cc1C1(c2cc(C(C)C)c(O)c([18F])c2C)OS(=O)(=O)c2ccccc21 (stereo not drawn) [MFTB, MonoFluoro Thymol Blue]	–	599	8.25	–	–
O=S1(=O)OC(c2ccc(O)cc2)(c2ccc(O)cc2)c2ccccc21 [Phenol Red, phenolsulfonphthalein, reference compound]	–	558	7.9	433	20 to 30
Cc1cc(O)c([18F])cc1C1(c2cc([18F])c(O)c([18F])c2C)OS(=O)(=O)c2ccccc21 (stereo not drawn) [TFCP, trifluorocresolsulfonphthalein]	–	592	6.4	–	–
O=S1(=O)OC(c2ccc(O)c([18F])c2)(c2cc([18F])c(O)c([18F])c2)c2ccccc21 (stereo not drawn) [TFPR, trifluorophenol red]	–	572	5.9	–	–
Cc1cc(O)c(C(C)C)cc1C1(c2cc(C(C)C)c(O)cc2C)OS(=O)(=O)c2ccccc21 [Thymol Blue, thymolsulfonphthalein, reference compound]	8.85	597	–	–	–
O=C1OC(c2cc([18F])c(O)c3ccccc23)(c2cc([18F])c(O)c3ccccc23)c2ccccc21 [difluoronaphtholphthalein]	–	668	7.2	–	–
O=C1OC(c2ccc(O)c([18F])c2)(c2ccc(O)c([18F])c2)c2ccccc21 [difluorophenolphthalein]	–	564	8.7	–	–
O=C1OC(c2ccc(O)cc2)(c2ccc(O)c([18F])c2)c2ccccc21 (stereo not drawn) [monofluorophenolphthalein]	–	558	9.3	–	–
O=C1OC(c2ccc(O)c3ccccc23)(c2ccc(O)c3ccccc23)c2ccccc21 [naphtholphthalein, reference compound]	–	653	7.95	–	–
O=C1OC(c2ccc(O)cc2)(c2ccc(O)cc2)c2ccccc21 [phenolphthalein, reference compound]	–	553	9.75	–	–
difluorocresolsulfonphthalein [DFCP]	–	589	–	–	–
monofluorocresolsulfonphthalein [MFCP]	–	582	–	–	–
monofluoronaphtholphthalein	7.7	660	–	–	–
trifluorophenol red [TFPR]	–	572	–	–	–
